Values belong to the compound of their own block, whether it stands above or below them.
Columns and labels:
[1] = tested on: Wnt pathway; experiment: Wnt activity reporter assay (SP5 promoter-luciferase in SW480 cells); assay type: cell-based; details: Homo sapiens, SP5 promoter firefly luciferase reporter, read-out: Wnt inhibition
How it was run: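 SW480 cells stably carrying an SP5 promoter (eight TCF/LEF sites)-firefly luciferase reporter were seeded at ~10,000 per well and given half-log compound dilutions from a 10 µM top concentration.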

[2] = tested on: β-catenin; experiment: NL-20 β-catenin reporter assay (primary screening assay for IPF); assay type: cell-based; details: transformed human bronchial epithelial cell line NL-20
Text: Compounds of Formulas (I) or (II) were screened in a β-catenin-based reporter assay in a transformed human bronchial epithelial cell line (NL-20).

Structure (SMILES): Nc1cncc(-c2cnc3[nH]nc(-c4nc5c(-c6cccc(F)c6)cncc5[nH]4)c3c2)c1 [Compound 5, 5-(3-(7-(3-Fluorophenyl)-3H-imidazo[4,5-c]pyridin-2-yl)-1H-pyrazolo[3,4-b]pyridin-5-yl)pyridin-3-amine]
IC50 [1]: 3.9 nM
IC50 ([2]; NL20): 175 nM

Structure (SMILES): CN(C)c1cncc(-c2cnc3[nH]nc(-c4nc5c(-c6cccc(F)c6)cncc5[nH]4)c3c2)c1 [Compound 7, 5-(3-(7-(3-Fluorophenyl)-3H-imidazo[4,5-c]pyridin-2-yl)-1H-pyrazolo[3,4-b]pyridin-5-yl)-N,N-dimethylpyridin-3-amine]
IC50 [1]: 6 nM
IC50 ([2]; NL20): 1900 nM

Structure (SMILES): CC(C)Nc1cncc(-c2cnc3[nH]nc(-c4nc5c(-c6cccc(F)c6)cncc5[nH]4)c3c2)c1 [Compound 9, 5-(3-(7-(3-Fluorophenyl)-3H-imidazo[4,5-c]pyridin-2-yl)-1H-pyrazolo[3,4-b]pyridin-5-yl)-N-isopropylpyridin-3-amine]
IC50 [1]: 1.2 nM
IC50 ([2]; NL20): 67 nM

Structure (SMILES): CN1CCN(Cc2cc(F)cc(-c3cncc4[nH]c(-c5n[nH]c6ncc(-c7cccnc7)cc56)nc34)c2)CC1 [Compound 10, 3-(7-(3-Fluoro-5-((4-methylpiperazin-1-yl)methyl)phenyl)-3H-imidazo[4,5-c]pyridin-2-yl)-5-(pyridin-3-yl)-1H-pyrazolo[3,4-b]pyridine]
IC50 [1]: 263 nM
IC50 ([2]; NL20): 247 nM

Structure (SMILES): CN1CCN(c2cc(F)cc(-c3cncc4[nH]c(-c5n[nH]c6ncc(-c7cccnc7)cc56)nc34)c2)CC1 [Compound 11, 3-(7-(3-Fluoro-5-(4-methylpiperazin-1-yl)phenyl)-3H-imidazo[4,5-c]pyridin-2-yl)-5-(pyridin-3-yl)-1H-pyrazolo[3,4-b]pyridine]
IC50 [1]: 99 nM
IC50 ([2]; NL20): 210 nM

Structure (SMILES): CN(C)CCNc1cc(F)cc(-c2cncc3[nH]c(-c4n[nH]c5ncc(-c6cccnc6)cc45)nc23)c1 [Compound 12, N1-(3-Fluoro-5-(2-(5-(pyridin-3-yl)-1H-pyrazolo[3,4-b]pyridin-3-yl)-3H-imidazo[4,5-c]pyridin-7-yl)phenyl)-N2,N2-dimethylethane-1,2-diamine]
IC50 [1]: 21 nM
IC50 ([2]; NL20): 310 nM

Structure (SMILES): CN(C)Cc1cc(F)cc(-c2cncc3[nH]c(-c4n[nH]c5ncc(-c6cccnc6)cc45)nc23)c1 [Compound 14, 1-(3-Fluoro-5-(2-(5-(pyridin-3-yl)-1H-pyrazolo[3,4-b]pyridin-3-yl)-3H-imidazo[4,5-c]pyridin-7-yl)phenyl)-N,N-dimethylmethanamine]
IC50 [1]: 138 nM
IC50 ([2]; NL20): 2030 nM

Structure (SMILES): CN(C)Cc1cncc(-c2cnc3[nH]nc(-c4nc5c(-c6cccc(F)c6)cncc5[nH]4)c3c2)c1 [Compound 18, 1-(5-(3-(7-(3-Fluorophenyl)-3H-imidazo[4,5-c]pyridin-2-yl)-1H-pyrazolo[3,4-b]pyridin-5-yl)pyridin-3-yl)-N,N-dimethylmethanamine]
IC50 [1]: 13 nM
IC50 ([2]; NL20): 440 nM

Structure (SMILES): CN(C)Cc1cncc(-c2cnc3[nH]nc(-c4nc5c(-c6cccs6)cncc5[nH]4)c3c2)c1 [Compound 452, N,N-Dimethyl-1-(5-(3-(7-(thiophen-2-yl)-3H-imidazo[4,5-c]pyridin-2-yl)-1H-pyrazolo[3,4-b]pyridin-5-yl)pyridin-3-yl)methanamine]
IC50 [1]: 48 nM
IC50 ([2]; NL20): 1090 nM

Structure (SMILES): CN1CCN(c2cccc3[nH]c(-c4n[nH]c5ncc(-c6cncc(NC(=O)C7CCC7)c6)cc45)nc23)CC1 [Compound 752, N-(5-(3-(4-(4-Methylpiperazin-1-yl)-1H-benzo[d]imidazol-2-yl)-1H-pyrazolo[3,4-b]pyridin-5-yl)pyridin-3-yl)cyclobutanecarboxamide]
IC50 [1]: 226 nM

Structure (SMILES): CN1CCN(c2cccc3[nH]c(-c4n[nH]c5ncc(-c6cncc(CN7CCC(F)(F)C7)c6)cc45)nc23)CC1 [Compound 758, 5-(5-((3,3-Difluoropyrrolidin-1-yl)methyl)pyridin-3-yl)-3-(4-(4-methylpiperazin-1-yl)-1H-benzo[d]imidazol-2-yl)-1H-pyrazolo[3,4-b]pyridine]
IC50 [1]: 48 nM

Structure (SMILES): Nc1cncc(-c2cnc3[nH]nc(-c4nc5ccccc5[nH]4)c3c2)c1 [Compound 761, 5-(3-(1H-Benzo[d]imidazol-2-yl)-1H-pyrazolo[3,4-b]pyridin-5-yl)pyridin-3-amine]
IC50 [1]: 320 nM

Structure (SMILES): CN(C)c1cncc(-c2cnc3[nH]nc(-c4nc5ccccc5[nH]4)c3c2)c1 [Compound 765, 5-(3-(1H-Benzo[d]imidazol-2-yl)-1H-pyrazolo[3,4-b]pyridin-5-yl)-N,N-dimethylpyridin-3-amine]
IC50 [1]: 27 nM

Structure (SMILES): CC(C)(C)CC(=O)Nc1cncc(-c2cnc3[nH]nc(-c4nc5ccccc5[nH]4)c3c2)c1 [Compound 774, N-(5-(3-(1H-Benzo[d]imidazol-2-yl)-1H-pyrazolo[3,4-b]pyridin-5-yl)pyridin-3-yl)-3,3-dimethylbutanamide]
IC50 [1]: 200 nM

Structure (SMILES): c1ccc(CNCc2cncc(-c3cnc4[nH]nc(-c5nc6ccccc6[nH]5)c4c3)c2)cc1 [Compound 781, 1-(5-(3-(1H-Benzo[d]imidazol-2-yl)-1H-pyrazolo[3,4-b]pyridin-5-yl)pyridin-3-yl)-N-benzylmethanamine]
IC50 [1]: 1440 nM

Structure (SMILES): CCC(=O)Nc1cncc(-c2cnc3[nH]nc(-c4nc5c(-c6ccsc6)cccc5[nH]4)c3c2)c1 [Compound 785, N-(5-(3-(4-(Thiophen-3-yl)-1H-benzo[d]imidazol-2-yl)-1H-pyrazolo[3,4-b]pyridin-5-yl)pyridin-3-yl)propionamide]
IC50 [1]: 10 nM

Structure (SMILES): CC(C)C(=O)Nc1cncc(-c2cnc3[nH]nc(-c4nc5c(-c6ccsc6)cccc5[nH]4)c3c2)c1 [Compound 793, N-(5-(3-(4-(Thiophen-3-yl)-1H-benzo[d]imidazol-2-yl)-1H-pyrazolo[3,4-b]pyridin-5-yl)pyridin-3-yl)isobutyramide]
IC50 [1]: 16 nM

Structure (SMILES): CN(C)Cc1cncc(-c2cnc3[nH]nc(-c4nc5c(-c6ccsc6)cccc5[nH]4)c3c2)c1 [Compound 797, N,N-Dimethyl-1-(5-(3-(4-(thiophen-3-yl)-1H-benzo[d]imidazol-2-yl)-1H-pyrazolo[3,4-b]pyridin-5-yl)pyridin-3-yl)methanamine]
IC50 [1]: 32 nM

Structure (SMILES): c1cc(-c2ccsc2)c2nc(-c3n[nH]c4ncc(-c5cncc(CN6CCCCC6)c5)cc34)[nH]c2c1 [Compound 799, 5-(5-(Piperidin-1-ylmethyl)pyridin-3-yl)-3-(4-(thiophen-3-yl)-1H-benzo[d]imidazol-2-yl)-1H-pyrazolo[3,4-b]pyridine]
IC50 [1]: 82 nM

Structure (SMILES): O=C(Nc1cncc(-c2cnc3[nH]nc(-c4nc5c(-c6ccsc6)cccc5[nH]4)c3c2)c1)C1CC1 [Compound 803, N-(5-(3-(4-(Thiophen-3-yl)-1H-benzo[d]imidazol-2-yl)-1H-pyrazolo[3,4-b]pyridin-5-yl)pyridin-3-yl)cyclopropanecarboxamide]
IC50 [1]: 17 nM

Structure (SMILES): CC(C)(C)C(=O)Nc1cncc(-c2cnc3[nH]nc(-c4nc5c(-c6ccoc6)cccc5[nH]4)c3c2)c1 [Compound 818, N-(5-(3-(4-(Furan-3-yl)-1H-benzo[d]imidazol-2-yl)-1H-pyrazolo[3,4-b]pyridin-5-yl)pyridin-3-yl)pivalamide]
IC50 [1]: 50 nM

Structure (SMILES): CCCC(=O)Nc1cncc(-c2cnc3[nH]nc(-c4nc5c(-c6ccoc6)cccc5[nH]4)c3c2)c1 [Compound 827, N-(5-(3-(4-(Furan-3-yl)-1H-benzo[d]imidazol-2-yl)-1H-pyrazolo[3,4-b]pyridin-5-yl)pyridin-3-yl)butyramide]
IC50 [1]: 63 nM

Structure (SMILES): c1cncc(-c2cnc3[nH]nc(-c4nc5c(-c6cccs6)cccc5[nH]4)c3c2)c1 [Compound 888, 5-(Pyridin-3-yl)-3-(4-(thiophen-2-yl)-1H-benzo[d]imidazol-2-yl)-1H-pyrazolo[3,4-b]pyridine]
IC50 [1]: 12 nM

Structure (SMILES): c1csc(-c2cccc3[nH]c(-c4n[nH]c5ncc(-c6cncc(CN7CCCC7)c6)cc45)nc23)c1 [Compound 898, 5-(5-(Pyrrolidin-1-ylmethyl)pyridin-3-yl)-3-(4-(thiophen-2-yl)-1H-benzo[d]imidazol-2-yl)-1H-pyrazolo[3,4-b]pyridine]
IC50 [1]: 120 nM

IC50 [2]: 7000 nM
Structure (SMILES): O=C1C(Cc2ccc(O)cc2)N2C(=O)CCN(C(=O)NCc3ccccc3)C2CN1Cc1cccc2ccccc12 (stereo not shown) [ICG-001, reference compound]

From patent US10071086B2, “1H-pyrazolo[3,4-b]pyridines and therapeutic uses thereof” (Samumed, LLC, priority 2012, dated 2018)
